Data from patent US12673918B2, “Small molecule RPN13 inhibitors with antitumor properties” (The Johns Hopkins University, priority 2019, dated 2026).
Read-outs that look alike come from different tables or passages of the source.

What was measured:
SKOV3 = assay: MTT cytotoxicity assay, SKOV3; settings: Homo sapiens
Description: (§1) Cell lines and cytotoxicity assays: All cell lines were obtained from the American Type Culture Collection (ATCC) and cultured in the specified medium supplemented with 10% fetal bovine serum, 100 IU/mL penicillin, and 100 μg/mL streptomycin at 37° C. in a humidified 5% CO2/95% air incubator. […] To assess drug cytotoxicity, cells were seeded at 2,500 cells/well (10,000 cells/well for MM lines) in 100 μL medium in 96-well plate and after 24 treated with compounds for 72 h, incubated according to the manufacturer's protocol with the Thiazolyl Blue Tetrazolium Bromide (Sigma, M2128) and A570 measured using a Benchmark Plus microplate spectrophotometer (BIO-RAD). IC50 data was analyzed by Graphpad Prism software.

TOV21G = assay: MTT cytotoxicity assay, TOV21G
SKOV3-TR = assay: MTT cytotoxicity assay, SKOV3-TR
ANBL6-V10R = assay: MTT cytotoxicity assay, ANBL6-V10R; format: cell-based; settings: read-out: IC50 ANBL6-V10R
Description: The cytotoxic efficacy of selected compounds was assessed against multiple myeloma (MM) cell lines, as this is a validated clinical target for the licensed proteasome inhibitors.
as §1

OVCAR5 = assay: MTT cytotoxicity assay, OVCAR5; format: cell-based; settings: Homo sapiens, read-out: IC50 OVCAR5
Description: as §1

LNCaP = assay: MTT cytotoxicity assay, LNCaP; settings: Homo sapiens
OVCAR3 = assay: MTT cytotoxicity assay, OVCAR3
HCC1806 = assay: MTT cytotoxicity assay, HCC1806; format: cell-based; settings: Homo sapiens, read-out: IC50 HCC1806
Description: as §1

HCT116 = assay: MTT cytotoxicity assay, HCT116
DLD-BRCA2-Ve = assay: MTT cytotoxicity assay, DLD-BRCA2-Ve; settings: read-out: cytotoxicity IC50 DLD-BRCA2-Ve
Description: (§2) Cell lines and cytotoxicity assays: All cell lines were obtained from the American Type Culture Collection (ATCC) and cultured in the specified medium supplemented with 10% fetal bovine serum, 100 IU/mL penicillin, and 100 μg/mL streptomycin at 37° C. in a humidified 5% CO2/95% air incubator. […] To assess drug cytotoxicity, cells were seeded at 2,500 cells/well (10,000 cells/well for MM lines) in 100 μL medium in 96-well plate and after 24 treated with compounds for 72 h, incubated according to the manufacturer's protocol with the Thiazolyl Blue Tetrazolium Bromide (Sigma, M2128) and A570 measured using a Benchmark Plus microplate spectrophotometer (BIO-RAD). IC50 data was analyzed by Graphpad Prism software. In the chirality studies the cells were treated with compounds for 48 h, and the cells were incubated and measured via the preceeding protocols.

CaSki = assay: MTT cytotoxicity assay, CaSki
MDA-MB231 = assay: MTT cytotoxicity assay, MDA-MB231; format: cell-based; settings: Homo sapiens, read-out: IC50 MDA-MB231
Description: as §1

SUM1315 = assay: cells; settings: read-out: cytotoxicity IC50 SUM1315
Description: as §2

HS578T = assay: MTT cytotoxicity assay, HS578T
A2780 = assay: MTT cytotoxicity assay, A2780
PEA1 = assay: cells; settings: read-out: cytotoxicity IC50 PEA1
Description: as §2

HeLa = assay: MTT cytotoxicity assay, HeLa; settings: read-out: cytotoxicity IC50 HeLa, Tables 3A/4B/4C
in vivo = settings: female, CD1, mouse, ip
Description: Pilot safety studies were performed in CD1 mice (n=3/dose group of healthy female mice aged 6-8 weeks) with increasing single doses delivered i.p. and the NOAEL (no-observed-adverse-effect level) was selected for further animal studies. […] Bortezomib was dissolved in a minimal amount of DMSO and further diluted with saline before injection in a dose finding study. […] To measure on-target inhibition of proteasome activity in mice, a leg muscle of CD-1 mice was transduced with the 4UbFL reporter construct. […] Briefly, mouse leg muscle was electroporated with 4UbFL plasmid and basal bioluminescence was measured after 24 hr using IVIS200 imager after injecting luciferin substrate. Mice were randomized (n=5/group) and treated with compounds in PEG400: Cremophor: Tween40 combination or vehicle alone as shown in Table 5 with one dose delivered by intraperitoneal injection. The mice were again imaged at 4 h, 24 h, 48 h post treatment.

TC1-Lu = assay: MTT cytotoxicity assay, TC1-Lu; settings: read-out: cytotoxicity IC50 TC1-Lu
Description: as §2

CHOP-10 mRNA = assay: RT-qPCR of CHOP-10 mRNA, ES2 cells; format: cell-based, human; settings: ES2, 0.5 μM, 12 hr
Description: FIG. 7A illustrates ES2 cells (250,000 cells/well) treated with compounds at 1 μM for 12 hr and mRNA was isolated. Samples were subjected to RT-qPCR to measure CHOP10 and mRNA levels normalized to GAPDH expression. Significance versus DMSO control (ns=not significant, ** <0.01, *** <0.001, **** <0.0001).
FIG. 16A illustrates ES2 cells treated with compounds (0.5 μM) for 12 hr and CHOP-10 mRNA levels, an ER stress marker, which was analyzed by qRT-PCR.
Q-PCR to measure mRNA levels: Total RNA was isolated from cells using the RNeasy mini kit (Qiagen) according to the manufacturer's instructions. Extracted RNA was normalized for concentration and reverse transcribed using an iScript cDNA synthesis kit (Bio-Rad) according to the manufacturer's instructions. CHOP10 expression levels were measured by Taqman gene expression assays with Taqman gene expression master mix (Applied Biosystems) and run with a standard thermal cycling protocol. Spliced XBP1 mRNA was assayed with SsoFast EvaGreen Supermix (Bio-rad) following the protocol for the iCycler System using as primers: F: 5′-[…]-3′ and R: 5′-[…]-3′. Calculations were done according to the Livak method and normalized to the reference gene GAPDH. Each condition was replicated three times; each sample was run in triplicate.

[1] = SK-OV-3, read-out: cytotoxicity IC50 SKOV3
[2] = read-out: cytotoxicity IC50 SKOV3-TR, Tables 3A/4B/4C, MTT assay
[3] = read-out: cytotoxicity IC50 HCT116, Tables 3A/4B/4C, MTT assay
[4] = read-out: cytotoxicity IC50 CasKi, Tables 3A/4B/4C, MTT assay
[5] = read-out: IC50 TOV21G, Table 3, MTT, 48 hr, Ovarian
[6] = read-out: cytotoxicity IC50 TOV21G, Tables 3A/4B/4C, MTT assay
[7] = read-out: cytotoxicity IC50 HS578T, Tables 3A/4B/4C, MTT assay
[8] = read-out: cytotoxicity IC50 A2780, Tables 3A/4B/4C, MTT assay
[9] = read-out: cytotoxicity IC50 LNCAP
[10] = read-out: cytotoxicity IC50 OVCAR3, Tables 3A/4B/4C, MTT assay
[11] = read-out: IC50 HCT116, Table 3, MTT, 48 hr, Colon

| SMILES | IC50 (SKOV3; [1]) [nM] | IC50 (SKOV3-TR; [2]) [nM] | IC50 (ANBL6-V10R; 48 h) [nM] | IC50 (OVCAR5; OVCAR-5, 48 h) [nM] | IC50 (LNCaP; 48 h, read-out: IC50 LNCaP) [nM] | IC50 (HCC1806; HCC1806, 48 h) [nM] | IC50 (HCT116; [3]) [nM] | IC50 (DLD-BRCA2-Ve) [nM] | IC50 (CaSki; [4]) [nM] | IC50 (SUM1315) [nM] | IC50 (TOV21G; [6]) [nM] | IC50 (HS578T; [7]) [nM] | IC50 (A2780; [8]) [nM] | IC50 (PEA1) [nM] | IC50 (LNCaP; [9]) [nM] | IC50 (OVCAR3; [10]) [nM] | IC50 (HeLa) [nM] | NOAEL (in vivo) [mg/kg] | IC50 (TC1-Lu) [nM] | CHOP10 transcript levels (CHOP-10 mRNA) | other results |
| --- | --- | --- | --- | --- | --- | --- | --- | --- | --- | --- | --- | --- | --- | --- | --- | --- | --- | --- | --- | --- | --- |
| O=C(CCl)N[C@@H](Cc1ccccc1)C(=O)N1C/C(=C\c2ccc([N+](=O)[O-])cc2)C(=O)/C(=C/c2ccc([N+](=O)[O-])cc2)C1 [RA375] | 26 | 22 | 16 | 12 | 60 | 17 | 89 | 18 | 3 | 19 |  |  |  |  |  |  |  |  |  |  | IC50 (TOV21G; read-out: IC50 TOV21G): 6 nM; IC50 (OVCAR3; read-out: IC50 OVCAR3): 17 nM; IC50 (CaSki; read-out: IC50 CaSki): 43 nM; IC50 (MDA-MB231; MDA-MB-231, 48 h): 22 nM |
| N[C@@H](Cc1ccccc1)C(=O)N1C/C(=C\c2ccc(Cl)c(Cl)c2)C(=O)/C(=C/c2ccc(Cl)c(Cl)c2)C1 [RA190, reference compound] | 73 | 109 |  |  |  |  | 239 |  | 324 | 1370 | 148 | 78 | 139 | 386 | 242 | 120 | 85 |  |  |  | IC50 (TOV21G; [5]): 83 nM; IC50 (ANBL6-V10R; Table 3, MTT, 48 hr, Multiple Myeloma, bortezomib resistant): 55 nM; IC50 (OVCAR5; OVCAR-5, Table 3, MTT, 48 hr, Ovarian): 64 nM; IC50 (HCC1806; HCC1806, Table 3, MTT, 48 hr, Triple Negative Breast): 52 nM; IC50 (MDA-MB231; MDA-MB-231, Table 3, MTT, 48 hr, Triple Negative Breast): 134 nM |
| CC(C)C[C@H](NC(=O)[C@H](Cc1ccccc1)NC(=O)c1cnccn1)B(O)O [Bortezomib, bortezomib, reference compound] | 1.5 |  |  |  |  |  |  |  |  |  |  | 13 | 3 | 30 |  | 30 | 3 | 0.75 | 4.5 | significantly increased CHOP10 transcript levels | IC50 (HCT116; [11]): 3.2 nM |
| CC1/C(=C\c2ccc([N+](=O)[O-])cc2)C(=O)/C(=C/c2ccc([N+](=O)[O-])cc2)CN1C(=O)[C@H](Cc1ccccc1)NC(=O)CCl (stereo partly drawn) [RA414] | < 20 | < 20 |  |  |  |  | 20 | < 40 |  | 20 | 1.1 | 1.5 | 3.5 | 30 | 24 | < 20 | 3 | 3 | 40 | significantly increased CHOP10 transcript levels |  |
| N[C@@H](Cc1ccccc1)C(=O)N1C/C(=C\c2ccc([N+](=O)[O-])cc2)C(=O)/C(=C/c2ccc([N+](=O)[O-])cc2)C1 [RA183, reference compound] | 54 | 77 | 103 | 56 | 186 | 44 | 193 |  | 312 |  | 53 | 89 | 161 |  | 186 | 78 | 112 |  |  |  | IC50 (SKOV3; SK-OV-3, 48 h, read-out: IC50 SKOV3): 54 nM; IC50 (TOV21G; [5]): 44 nM; IC50 (SKOV3-TR; read-out: IC50 SKOV3-TR, Table 3, MTT, 48 hr, Ovarian, paclitaxel resistant): 77 nM; IC50 (HS578T; read-out: IC50 HS578T, Table 3, MTT, 48 hr, Triple Negative Breast): 89 nM; IC50 (A2780; read-out: IC50 A2780, Table 3, MTT, 48 hr, Ovarian): 161 nM; IC50 (OVCAR3; read-out: IC50 OVCAR3, Table 3, MTT, 48 hr, Ovarian): 78 nM; IC50 (HCT116; [11]): 193 nM; IC50 (CaSki; read-out: IC50 CaSki, Table 3, MTT, 48 hr, Cervical (HPV +ve)): 312 nM; IC50 (MDA-MB231; MDA-MB-231, 48 h): 124 nM |
| C[C@H]1/C(=C\c2ccc([N+](=O)[O-])cc2)C(=O)/C(=C/c2ccc([N+](=O)[O-])cc2)CN1C(=O)[C@@H](N)Cc1ccccc1 | 40 | 60 |  |  |  |  | 80 | 55 | 27 | 258 | 3.6 |  |  | 70 |  |  |  | 30 | 114 | significantly increased CHOP10 transcript levels |  |
